What was measured:
Homo sapiens [1] = species: Homo sapiens; assay: Compound was tested for inactivation of monoclonal antibody complex (MAO B - MAO B 1C2) from human autopsy liver
Homo sapiens [2] = species: Homo sapiens; assay: Compound was tested for inhibition of monoclonal antibody complex (MAO B - MAO B 1C2) from human autopsy liver expressed as specific activity
Homo sapiens [3] = species: Homo sapiens; assay: Compound was tested for inactivation of monoclonal antibody complex Monoamine oxidase B from human autopsy liver

SMILES | k' (Homo sapiens [1]) [min⁻¹] | Specific activity (nM min-1 mg-1) (Homo sapiens [2]) | k' (Homo sapiens [3]) [min⁻¹]
CN1CC=C(c2ccccc2)CC1 | 0.0264 | 85.2 | 
C1=C(c2ccccc2)CCN(CCc2ccccc2)C1 |  | 0 | 0
CC1CN(C)CC=C1c1ccccc1 (stereo not drawn) | 0 | 11.4 | 
CC1=C(c2ccccc2)CCN(C)C1 | 0 | 5.3 | 
